Columns and labels:
Mus musculus = assay: Antiinflammatory activity, administered ip at 150 uM/kg dose was determined against carrageenan-induced mice paw edema model; assay type: functional; conditions: at 150 µmol/kg
Rattus norvegicus [1] = assay: Hypolipidemic action at 500 uM/kg was determined as reduction in triglycerides in rat plasma; assay type: functional
Rattus norvegicus [2] = assay: Hypolipidemic action at 500 uM/kg was determined as reduction in low density lipoprotein in rat plasma; assay type: functional
Rattus norvegicus [3] = assay: Body weight change after once daily administration for 4 days at 84 uM/kg in rats was determined; assay type: functional
Rattus norvegicus [4] = species: Rattus norvegicus; assay: In vitro ability to inhibit the peroxidation of rat hepatic microsomal lipids; assay type: functional; conditions: Liver
Rattus norvegicus [5] = assay: Mortality caused by the compound in rats after administration at 84 uM/kg for 4 days; assay type: functional
Rattus norvegicus [6] = species: Rattus norvegicus; assay: In vitro ability to inhibit the peroxidation of rat hepatic microsomal lipids at 1 mM concentration; assay type: functional; conditions: Liver
Rattus norvegicus [7] = assay: Ulcerogenic activity administered once daily for 4 days at 84 uM/kg was determined as no of animals showing perforating ulcers; assay type: functional
Rattus norvegicus [8] = assay: Hypolipidemic action at 500 uM/kg was determined as reduction in total cholesterol in rat plasma
Rattus norvegicus [9] = assay: Body weight change after once daily administration at 240 uM/kg for 4 days in rats was determined; assay type: functional
Rattus norvegicus [10] = assay: Mortality caused by the compound in rats after administration at 240 uM/kg for 4 days; assay type: functional
Rattus norvegicus [11] = assay: Ulcerogenic activity administered once daily at 240 uM/kg for 4 days was determined as no of animals showing perforating ulcers; assay type: functional
Rattus norvegicus [12] = assay: Hypolipidemic action at 250 uM/kg was determined as reduction in low density lipoprotein in rat plasma; assay type: functional
Rattus norvegicus [13] = assay: Hypolipidemic action at 250 uM/kg was determined as reduction in total cholesterol in rat plasma; assay type: functional
Rattus norvegicus [14] = assay: Hypolipidemic action at 250 uM/kg was determined as reduction in triglycerides in rat plasma; assay type: functional
Rattus norvegicus [15] = assay: Body weight change after once daily administration for 4 days in rats was determined; assay type: functional
Rattus norvegicus [16] = assay: Mortality caused by the compound in rats after administration at 1600 uM/kg for 4 days; assay type: functional
Rattus norvegicus [17] = assay: Ulcerogenic activity administered once daily at 1600 uM/kg for 4 days was determined as no of animals showing perforating ulcers; assay type: functional
Rattus norvegicus [18] = assay: Body weight change after once daily administration at 84 uM/kg for 4 days in rats was determined; assay type: functional
Rattus norvegicus [19] = assay: Ulcerogenic activity administered once daily at 84 uM/kg for 4 days was determined as no of animals showing perforating ulcers; assay type: functional
Rattus norvegicus [20] = assay: Hypolipidemic action at 300 uM/kg was determined as reduction in low density lipoprotein in rat plasma; assay type: functional
Rattus norvegicus [21] = assay: Hypolipidemic action at 300 uM/kg was determined as reduction in total cholesterol in rat plasma; assay type: functional
Rattus norvegicus [22] = assay: Hypolipidemic action at 300 uM/kg was determined as reduction in triglycerides in rat plasma; assay type: functional
Rattus norvegicus [23] = assay: Body weight change after once daily administration at 1600 uM/kg for 4 days in rats was determined; assay type: functional
Rattus norvegicus [24] = assay: Mortality caused by the compound in rats after administration at 1350 uM/kg for 4 days; assay type: functional
Rattus norvegicus [25] = assay: Ulcerogenic activity administered once daily at 1350 uM/kg for 4 days was determined as no of animals showing perforating ulcers; assay type: functional
Rattus norvegicus [26] = assay: Body weight change after once daily administration at 200 uM/kg for 4 days in rats was determined; assay type: functional
Rattus norvegicus [27] = assay: Mortality caused by the compound in rats after administration at 200 uM/kg for 4 days; assay type: functional
Rattus norvegicus [28] = assay: Ulcerogenic activity administered once daily at 200 uM/kg for 4 days was determined as no of animals showing perforating ulcers; assay type: functional
Rattus norvegicus [29] = assay: Body weight change after once daily administration at 760 uM/kg for 4 days in rats was determined; assay type: functional
Rattus norvegicus [30] = assay: Mortality caused by the compound in rats after administration at 760 uM/kg for 4 days; assay type: functional
Rattus norvegicus [31] = assay: Ulcerogenic activity administered once daily at 760 uM/kg for 4 days was determined as no of animals showing perforating ulcers; assay type: functional
Rattus norvegicus [32] = assay: Mortality caused by the compound in rats after administration at 1200 uM/kg for 4 days; assay type: functional
Rattus norvegicus [33] = assay: Ulcerogenic activity administered once daily at 1200 uM/kg for 4 days was determined as no of animals showing perforating ulcers; assay type: functional

Structure (SMILES) | Edema inhibition (Mus musculus) [%] | Paw weight increase (Mus musculus) [%] | Decrease (Rattus norvegicus [1]) [%] | Decrease (Rattus norvegicus [2]) [%] | Decrease (Rattus norvegicus [8]) [%] | also measured
CCOC(=O)[C@H](CS)NC(=O)Cc1c(C)n(C(=O)c2ccc(Cl)cc2)c2ccc(OC)cc12 | 63.3 | 14.1 | 19.8 | 60.5 | 37 | Body weight change (Rattus norvegicus [3]): 3.4 g (100g of body weight)-1; IC50 (Rattus norvegicus [4]): 51 µM; Mortality (Rattus norvegicus [5]): 0%; inhibition (Rattus norvegicus [6]): 100%; Ulcerogenic activity (Rattus norvegicus [7]): 0%
CCOC(=O)[C@@H](N)CS.O=C(O)c1ccccc1Nc1cccc(C(F)(F)F)c1 | 9 | 61.9 |  |  |  | 
CCOC(=O)[C@@H](N)CS.COc1ccc2c(c1)c(CC(=O)O)c(C)n2C(=O)c1ccc(Cl)cc1 | 32.8 | 25.8 |  |  |  | 
CCOC(=O)[C@H](CS)NC(=O)Cc1ccccc1Nc1c(Cl)cccc1Cl | 59.3 | 11.8 | 31.6 | 92.6 | 54.7 | Body weight change (Rattus norvegicus [9]): 3.1 g (100g of body weight)-1; IC50 (Rattus norvegicus [4]): 27 µM; Mortality (Rattus norvegicus [10]): 0%; inhibition (Rattus norvegicus [6]): 100%; Ulcerogenic activity (Rattus norvegicus [11]): 0%
CCOC(=O)[C@H](CS)NC(=O)C(C)c1ccc(CC(C)C)cc1 (stereo not given in full) | 61.2 | 19.1 |  |  |  | Decrease (Rattus norvegicus [12]): 68.7%; Decrease (Rattus norvegicus [13]): 48.1%; Decrease (Rattus norvegicus [14]): 27.5%; Body weight change (Rattus norvegicus [15]): 1 g (100g of body weight)-1; IC50 (Rattus norvegicus [4]): 38 µM; Mortality (Rattus norvegicus [16]): 0%; inhibition (Rattus norvegicus [6]): 100%; Ulcerogenic activity (Rattus norvegicus [17]): 0%
COc1ccc2c(c1)c(CC(=O)O)c(C)n2C(=O)c1ccc(Cl)cc1 [INDOMETHACIN] | 41.6 | 22.5 | 78.6 | 72.2 | 74.4 | Body weight change (Rattus norvegicus [18]): -13 g (100g of body weight)-1; Mortality (Rattus norvegicus [5]): 50%; Ulcerogenic activity (Rattus norvegicus [19]): 80%
CC(C)Cc1ccc(C(C)C(=O)O)cc1 (stereo not given) [IBUPROFEN] | 35.6 | 31.7 |  |  |  | Decrease (Rattus norvegicus [20]): 31.6%; Decrease (Rattus norvegicus [21]): 38.2%; Decrease (Rattus norvegicus [22]): 41.6%; Body weight change (Rattus norvegicus [23]): -12.7 g (100g of body weight)-1; Mortality (Rattus norvegicus [16]): 50%; Ulcerogenic activity (Rattus norvegicus [17]): 88%
COc1ccc2cc([C@H](C)C(=O)O)ccc2c1 [NAPROXEN] | 11 | 50.4 | 25.5 | 43.5 | 53 | Body weight change (Rattus norvegicus [15]): -15.8 g (100g of body weight)-1; Mortality (Rattus norvegicus [24]): 50%; Ulcerogenic activity (Rattus norvegicus [25]): 100%
CC(C(=O)O)c1cccc(C(=O)c2ccccc2)c1 (stereo not given) [KETOPROFEN] |  | 35.9 |  |  |  | Body weight change (Rattus norvegicus [26]): -18.9 g (100g of body weight)-1; Mortality (Rattus norvegicus [27]): 50%; Ulcerogenic activity (Rattus norvegicus [28]): 83%
CCOC(=O)[C@@H](N)CS.O=C([O-])Cc1ccccc1Nc1c(Cl)cccc1Cl.[Na+] | 27.7 | 28.2 |  |  |  | 
Cc1c(Cl)cccc1Nc1ccccc1C(=O)O [TOLFENAMIC ACID] | 24 | 27.6 |  |  |  | Body weight change (Rattus norvegicus [29]): -5.3 g (100g of body weight)-1; Mortality (Rattus norvegicus [30]): 50%; Ulcerogenic activity (Rattus norvegicus [31]): 50%
CCOC(=O)[C@H](CS)NC(=O)C(C)c1cccc(C(=O)c2ccccc2)c1 (stereo not given in full) | 29 | 48 |  |  |  | Body weight change (Rattus norvegicus [26]): 0.3 g (100g of body weight)-1; IC50 (Rattus norvegicus [4]): 650 µM; Mortality (Rattus norvegicus [27]): 0%; inhibition (Rattus norvegicus [6]): 100%; Ulcerogenic activity (Rattus norvegicus [28]): 0%
CCOC(=O)[C@@H](N)CS.Cc1c(Cl)cccc1Nc1ccccc1C(=O)O | 25.9 | 25.5 |  |  |  | 
CCOC(=O)[C@H](CS)NC(=O)C(C)c1ccc2cc(OC)ccc2c1 (stereo not given in full) | 37.1 | 35.6 | 29.6 | 46.8 | 33.8 | Body weight change (Rattus norvegicus [15]): 9.2 g (100g of body weight)-1; IC50 (Rattus norvegicus [4]): 28 µM; Mortality (Rattus norvegicus [24]): 0%; inhibition (Rattus norvegicus [6]): 100%; Ulcerogenic activity (Rattus norvegicus [25]): 0%
CCOC(=O)[C@@H](N)CS | 24.9 | 29.2 |  |  |  | 
CCOC(=O)[C@@H](N)CS.COc1ccc2cc(C(C)C(=O)O)ccc2c1 (stereo not given) | 38.1 | 30.1 |  |  |  | 
CC(C(=O)O)c1cccc(C(=O)c2ccccc2)c1.CCOC(=O)[C@@H](N)CS (stereo not given) | 39 | 41.6 |  |  |  | 
O=C(O)c1ccccc1Nc1cccc(C(F)(F)F)c1 [FLUFENAMIC ACID] | 19 | 55.4 |  |  |  | Body weight change (Rattus norvegicus [15]): -9.2 g (100g of body weight)-1; Mortality (Rattus norvegicus [32]): 50%; Ulcerogenic activity (Rattus norvegicus [33]): 50%
O=C([O-])Cc1ccccc1Nc1c(Cl)cccc1Cl.[Na+] [DICLOFENAC SODIUM] | 37.1 | 24.5 | 96.1 | 86.3 | 87.4 | Ulcerogenic activity (Rattus norvegicus [11]): 75%
